Experimental data taken from US20140206608A1 (priority 2012, published 2014).
*1 amine or outer side, *2 acyl side, *3 side chain or, on linkers, in order; H or OH if unused. Where a SMILES comes first, the peptide text is derived from it. Side-chain parts run from the residue outwards. [ ]: non-standard residue; d: D form. The star is where a group is joined. γGlu = O=C(O)[C@H](CCC(=O)[*:2])N[*:1]; Stearoyl = CCCCCCCCCCCCCCCCCC(=O)*; Aib = CC(C)(N)C(=O)O

Legend:
[1] = target: T1, human GIP receptor (hGIP R) (Homo sapiens, UniProt P48546); test: cAMP response of HEK-293 cells stably expressing human GIP receptor (HTRF); format: cell-based
T1 construct: expressed in transfected cells; host or cells: HEK-293
T1 sequence (P48546 22-466): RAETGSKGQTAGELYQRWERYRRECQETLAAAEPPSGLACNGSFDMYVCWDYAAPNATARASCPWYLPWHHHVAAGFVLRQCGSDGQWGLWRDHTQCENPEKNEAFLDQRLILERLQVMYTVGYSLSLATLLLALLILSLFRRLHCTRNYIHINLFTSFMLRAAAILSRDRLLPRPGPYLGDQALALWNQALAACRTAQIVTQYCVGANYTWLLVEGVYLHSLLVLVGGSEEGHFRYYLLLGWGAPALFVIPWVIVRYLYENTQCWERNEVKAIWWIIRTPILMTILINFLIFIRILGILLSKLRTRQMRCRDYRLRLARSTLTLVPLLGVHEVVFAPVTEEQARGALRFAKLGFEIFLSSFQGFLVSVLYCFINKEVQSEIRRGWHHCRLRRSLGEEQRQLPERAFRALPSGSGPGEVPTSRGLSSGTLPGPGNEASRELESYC
Protocol: cAMP content of cells was determined using a kit from Cisbio Corp. (cat. no. 62AM4PEC) based on HTRF (Homogenous Time Resolved Fluorescence). For preparation, cells were split into T175 culture flasks and grown overnight to near confluency in medium (DMEM/10% FBS). Medium was then removed and cells washed with PBS lacking calcium and magnesium, followed by proteinase treatment with accutase (Sigma-Aldrich cat. no. A6964). Detached cells were washed and resuspended in assay buffer (1×HBSS; 20 mM HEPES, 0.1% BSA, 2 mM IBMX) and cellular density determined. They were then diluted to 400000 cells/ml and 25 μl-aliquots dispensed into the wells of 96-well plates. For measurement, 25 μl of test compound in assay buffer was added to the wells, followed by incubation for 30 minutes at room temperature.

α-chymotrypsin = test: Enzymatic stability testing versus α-chymotrypsin; format: in vitro ADME; conditions: human, human recombinant α-chymotrypsin, pH 8.3; % of degradation after 120 min; 2 μM peptide, 37° C.; read-out: Lability versus enzymatic degradation, α-Chymotrypsin
Protocol: The reaction was stopped by addition of ethanol. The samples were analyzed by LC-MS/MS. […] The metabolic lability is given as % of degradation.

[2] = Subchronic effect on body weight in female diet-induced obese (DIO) C57BL/6NCrl mice (method 2); format: in vivo; conditions: 3 weeks; for Overall weight change: mean ± SEM
Protocol: Female C57BL/6NCrl mice were housed in groups in a specific pathogen-free barrier facility on a 12 h light/dark cycle with free access to water and high-fat diet. After 14 weeks on high-fat diet, mice were stratified to treatment groups (n=8), so that each group had similar mean body weight.
An aged-matched group with ad libitum access to standard chow and water was included as standard control group.
Before the experiment, mice were subcutaneously (s.c.) injected with vehicle solution and weighed for 3 days to acclimate them to the procedures.
Body weight was recorded daily.
Statistical analyses were performed with Everstat 6.0 by repeated measures two-way ANOVA and Dunnett's post-hoc analyses (glucose profile) and 1-way-ANOVA, followed by Dunnett's post-hoc test (body weight, body fat). Differences versus vehicle-treated DIO control mice were considered statistically significant at the p<0.05 level.

female NMRI-mice = test: Automated assessment of 22-hours feed intake in female NMRI-mice; format: in vivo
Protocol: Female NMRI-mice of a body weight between 20 and 30 g were used. Mice were adapted to housing conditions for at least one week and for at least one day single-caged in the assessment equipment, when basal data were recorded simultaneously. On the study day, test product was administered subcutaneously close to the lights-off phase (12 h lights off) and assessment of feed consumption was directly started afterwards. Assessment included continued monitoring over 22 hours, while data are processed as mean over every 30 min. Repetition of this procedure over several days was possible. Restriction of assessment to 22 hours was for practical reasons to allow for reweighing of animals, refilling of feed and water and drug administration between procedures. Results could be assessed as cumulated data over 22 hours or differentiated to 30 min intervals.
Statistical analyses were performed with Everstat 6.0 by two-way ANOVA on repeated measures and Dunnett's post-hoc analyses. Differences were considered statistically significant at the p<0.05 level.
Lights-off phase (dark phase) started 4 hours later.

With `CCCCCCCCCCCCCCCCCC(=O)N[C@@H](CCC(=O)NCCCC[C@H](NC(=O)[C@H](CCC(N)=O)NC(=O)[C@@H](NC(=O)[C@H](CO)NC(=O)[C@H](CC(C)C)NC(=O)[C@H](CC(=O)O)NC(=O)[C@H](CO)NC(=O)[C@@H](NC(=O)[C@H](Cc1ccccc1)NC(=O)[C@@H](NC(=O)CNC(=O)[C@H](CCC(=O)O)NC(=O)C(C)(C)NC(=O)[C@@H](N)Cc1ccc(O)cc1)[C@@H](C)O)[C@@H](C)O)[C@@H](C)CC)C(=O)N[C@@H](CCC(=O)O)C(=O)N[C@@H](CCC(=O)O)C(=O)N[C@@H](CCC(=O)O)C(=O)N[C@@H](C)C(=O)N[C@H](C(=O)N[C@@H](CCCNC(=N)N)C(=O)N[C@@H](CC(C)C)C(=O)N[C@@H](Cc1ccccc1)C(=O)N[C@H](C(=O)N[C@@H](CCC(=O)O)C(=O)N[C@@H](Cc1c[nH]c2ccccc12)C(=O)N[C@@H](CC(C)C)C(=O)N[C@@H](CCCCN)C(=O)N[C@@H](C)C(=O)NCC(=O)NCC(=O)N1CCC[C@H]1C(=O)N[C@@H](CO)C(=O)N[C@@H](CO)C(=O)NCC(=O)N[C@@H](C)C(=O)N1CCC[C@H]1C(=O)N1CCC[C@H]1C(=O)N1CCC[C@H]1C(=O)N[C@@H](CO)C(N)=O)[C@@H](C)CC)C(C)C)C(=O)O` [SEQ ID NO: 10, Y-Aib-E-G-T-F-T-S-D-L-S-I-Q-K(γE-x70)-EEEAVRLFIEWLKAGGPSSGAPPPS-NH2] (H-Y[Aib]EGTFTSDLSIQK([γGlu-Stearoyl])EEEAVRLFIEWLKAGGPSSGAPPPS-NH2) the EC50 [1] was 6.7 pM, the metabolised at 2 h, 2 μM (α-chymotrypsin) was 48% and the “decrease of body weight, relative change from baseline” value ([2]; 3 μg/kg s.c. once daily) was 8.6%. The Overall weight change ([2]; 3 μg/kg s.c. once daily) was -3.6 ± 1.0 g, the “decrease of body weight, relative change from baseline” value ([2]; 10 μg/kg s.c. once daily) was 14.3% and the Overall weight change ([2]; 10 μg/kg s.c. once daily) was -5.5 ± 0.8 g. The “reduction of feed intake after 22 hours” value (female NMRI-mice; 3 μg/kg s.c., not significant, p=0.78) was 19% and the “reduction of feed intake after 22 hours” value (female NMRI-mice; 10 μg/kg s.c., p=0.049) was 34%.
